According to patent US9181234B2, “Antibacterial compounds” (priority 2010, dated 2015):
≈ marks a conversion by molar mass, not a printed value.

Key:
[1] = test system: Streptococcus pyogenes (Isolate ID ATCC 51339); assay: Antibacterial activity, MIC, S. pyogenes; assay type: cell-based; settings: Streptococcus pyogenes, ATCC51339, Gram positive strain; broth microdilution or agar dilution
Method in brief: (§1)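 MICs determined by broth microdilution or agar dilution according to CLSI guidelines (M7-A7).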

[2] = test system: Enterococcus faecalis (Isolate ID ATCC 29212); assay: Antibacterial activity, MIC, E. faecalis; assay type: cell-based; settings: Enterococcus faecalis, ATCC29212; Gram positive strain; broth microdilution or agar dilution
Method in brief: as §1

physchem = settings: kinetic from dmso stock
Method in brief: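 DMSO doubling dilutions were diluted twenty-fold into 100 mM citrate (pH 4), PBS (pH 7.4) or carbonate-bicarbonate (pH 9). After 24 h equilibration at room temperature, absorbance was read at 620 nm. The reported value is the highest concentration without measurable precipitate.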

[3] = test system: Haemophilus influenzae (Isolate ID ATCC 49247); assay: Antibacterial activity, MIC, H. influenzae; assay type: cell-based; settings: Haemophilus influenzae, ATCC49247; Gram negative strain; broth microdilution or agar dilution
Method in brief: as §1

[4] = test system: Staphylococcus aureus (Isolate ID ATCC 29213); assay: Antibacterial activity, MIC, S. aureus; assay type: cell-based; settings: Staphylococcus aureus, ATCC29213, Gram positive strain; broth microdilution or agar dilution
Method in brief: as §1

[5] = pH 7.4, aqueous buffer, Solubility (pH 7.4)
[6] = pH 7.4, aqueous buffer, Solubility Range
[7] = pH 9, aqueous buffer, Max Solubility
[8] = pH 9, aqueous buffer, Solubility Range (maximum solubility)

| MIC [1] [µg/mL] | MIC [2] [µg/mL] | solubility at 24 h (physchem; [5]) [µg/mL] | solubility at 24 h (physchem; [6]) [µg/mL] | solubility at 24 h (physchem; [7]) [µg/mL] | solubility at 24 h (physchem; [8]) [µg/mL] | MIC [3] [µg/mL] | MIC [4] [µg/mL] | Structure (SMILES) |
| --- | --- | --- | --- | --- | --- | --- | --- | --- |
| ≤ 0.25 | ≤ 0.25 | 50 (≈ 85.4 µM) | 12.5 to 400 (≈ 21.3 to 683 µM) | ≥ 800 | > 800 | > 16 | 0.25 to 1 (≈ 0.427 to 1.71 µM) | CCCC1(C(=O)O)CCN(c2ncc(-c3cc(-c4ncnc5[nH]ccc45)c4sc(NC(=O)NCC)nc4c3)cn2)CC1 [Compound 125] |
| ≤ 0.25 | ≤ 0.25 | 100 (≈ 175 µM) | 12.5 to 400 (≈ 21.9 to 701 µM) | ≥ 800 | > 800 | 1 to 16 (≈ 1.75 to 28 µM) | ≤ 0.25 | CCCC1(C(=O)O)CCN(c2ncc(-c3cc(-c4ncccc4C#N)c4sc(NC(=O)NCC)nc4c3)cn2)CC1 [Compound 126] |
| ≤ 0.25 | ≤ 0.25 | 12.5 (≈ 21.7 µM) | 12.5 to 400 (≈ 21.7 to 694 µM) | 25 (≈ 43.4 µM) | 12.5 to 400 (≈ 21.7 to 694 µM) | > 16 | ≤ 0.25 | CCCC1(C(=O)O)CCN(c2ncc(-c3cc(-c4nccc(OC)n4)c4sc(NC(=O)NCC)nc4c3)cn2)CC1 [Compound 127] |
| 1 to 16 (≈ 1.93 to 30.9 µM) | > 16 | 25 (≈ 48.2 µM) | 12.5 to 400 (≈ 24.1 to 771 µM) |  |  | > 16 | > 16 | CCNC(=O)Nc1nc2cc(-c3cnc(N4CCC(N)(C(=O)O)CC4)nc3)cc(-c3ccccn3)c2s1 [Compound 128, 4-amino-1-[5-[2-(ethylcarbamoylamino)-7-(2-pyridyl)-1,3-benzothiazol-5-yl]pyrimidin-2-yl]piperidine-4-carboxylic acid] |
| 0.25 to 1 (≈ 0.431 to 1.73 µM) | ≤ 0.25 | 12.5 (≈ 21.6 µM) | 12.5 to 400 (≈ 21.6 to 690 µM) |  |  | > 16 | 0.25 to 1 (≈ 0.431 to 1.73 µM) | CCNC(=O)Nc1nc2cc(-c3cnc(N4CCC(C(=O)O)(c5ccccc5)CC4)nc3)cc(-c3ccccn3)c2s1 [Compound 129] |
| 1 to 16 (≈ 1.89 to 30.3 µM) | 1 to 16 (≈ 1.89 to 30.3 µM) | 200 (≈ 378 µM) | 12.5 to 400 (≈ 23.6 to 757 µM) |  |  | > 16 | > 16 | CCNC(=O)Nc1nc2cc(-c3cnc(N4CCC(C#N)(C(=O)O)CC4)nc3)cc(-c3ccccn3)c2s1 [Compound 130] |
| ≤ 0.25 | 0.25 to 1 (≈ 0.481 to 1.92 µM) | 100 (≈ 192 µM) | 12.5 to 400 (≈ 24.1 to 770 µM) |  |  | 1 to 16 (≈ 1.92 to 30.8 µM) | 1 to 16 (≈ 1.92 to 30.8 µM) | CCNC(=O)Nc1nc2cc(-c3cnc(N4CCC(O)(C(=O)O)CC4)nc3)cc(-c3ccccn3)c2s1 [Compound 131] |
| ≤ 0.25 | ≤ 0.25 | 400 (≈ 750 µM) | 400 to 800 (≈ 750 to 1500 µM) |  |  | 1 to 16 (≈ 1.87 to 30 µM) | 0.25 to 1 (≈ 0.469 to 1.87 µM) | CCNC(=O)Nc1nc2cc(-c3cnc(N4CCC(OC)(C(=O)O)CC4)nc3)cc(-c3ccccn3)c2s1 [Compound 132] |
| 1 to 16 (≈ 1.72 to 27.5 µM) | 1 to 16 (≈ 1.72 to 27.5 µM) | ≥ 800 | > 800 |  |  | > 16 | > 16 | CCNC(=O)Nc1nc2cc(-c3cnc(N4CCC(C(=O)O)(S(C)(=O)=O)CC4)nc3)cc(-c3ccccn3)c2s1 [Compound 133] |
| 0.25 to 1 (≈ 0.421 to 1.68 µM) | ≤ 0.25 | 100 (≈ 168 µM) | 12.5 to 400 (≈ 21.1 to 674 µM) |  |  | > 16 | ≤ 0.25 | CCNC(=O)Nc1nc2cc(-c3cnc(N4CCC(Cc5ccccc5)(C(=O)O)CC4)nc3)cc(-c3ccccn3)c2s1 [Compound 134] |
| ≤ 0.25 | ≤ 0.25 | 400 (≈ 767 µM) | 400 to 800 (≈ 767 to 1530 µM) |  |  | 1 to 16 (≈ 1.92 to 30.7 µM) | 1 to 16 (≈ 1.92 to 30.7 µM) | CCNC(=O)Nc1nc2cc(-c3cnc(N4CCC(F)(C(=O)O)CC4)nc3)cc(-c3ccccn3)c2s1 [Compound 135] |
| ≤ 0.25 | ≤ 0.25 | 400 (≈ 733 µM) | 400 to 800 (≈ 733 to 1470 µM) |  |  | 1 to 16 (≈ 1.83 to 29.3 µM) | ≤ 0.25 | CCNC(=O)Nc1nc2cc(-c3cnc(N4CCC(C(=O)O)(C(C)C)CC4)nc3)cc(-c3ccccn3)c2s1 [Compound 137] |
| ≤ 0.25 | ≤ 0.25 | ≥ 800 | > 800 |  |  | 1 to 16 (≈ 1.82 to 29.1 µM) | ≤ 0.25 | CCNC(=O)Nc1nc2cc(-c3cnc(N4CCC(SC)(C(=O)O)CC4)nc3)cc(-c3ccccn3)c2s1 [Compound 138] |
